US7700782B2, “Compounds 569” (AstraZeneca AB, priority 2007, dated 2010)
Structures can show the parent of a compound that is named as a salt.

Biological target: T1, Adrenergic β2 (Homo sapiens, UniProt P07550)
T1 construct: Adherent H292 cells were removed from tissue culture flasks; endogenous in cells; host or cells: H292 cells
Assay: Adrenergic β2 mediated cAMP production in H292 cells (AlphaScreen cAMP detection)
Assay type: cell-based
Conditions: Intrinsic Activity, fraction relative to the maximum activity determined for formoterol
Outline: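 H292 cells, 5000/well, preincubated 10 min with rolipram (final 300 μM, 1.6% DMSO) in HEPES pH 7.4 HBSS, then compound 60 min at room temperature. Lysate cAMP quantified by AlphaScreen against a cAMP standard curve. pEC50 and intrinsic activity (fraction of formoterol maximum) from four-parameter logistic fits.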

T1 sequence (P07550 whole entry): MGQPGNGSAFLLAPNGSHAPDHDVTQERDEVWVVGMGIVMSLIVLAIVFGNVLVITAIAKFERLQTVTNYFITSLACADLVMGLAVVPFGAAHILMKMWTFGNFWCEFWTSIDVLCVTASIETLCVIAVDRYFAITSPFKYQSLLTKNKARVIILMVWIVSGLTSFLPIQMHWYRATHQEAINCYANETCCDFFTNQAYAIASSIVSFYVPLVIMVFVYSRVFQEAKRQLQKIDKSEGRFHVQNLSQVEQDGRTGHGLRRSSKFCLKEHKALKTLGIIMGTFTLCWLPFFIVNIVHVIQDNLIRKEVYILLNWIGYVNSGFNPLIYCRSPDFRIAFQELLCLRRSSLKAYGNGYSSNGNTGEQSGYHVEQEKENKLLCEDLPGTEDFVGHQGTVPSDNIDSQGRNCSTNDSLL

Row | Structure (SMILES) | β2 Int Act
1 | CCCC[C@@H](C)N(CCNCCc1ccc(O)c2[nH]c(=O)sc12)C(=O)CCNCCc1ccccc1 [Example 101, N-(2-{[2-(4-Hydroxy-2-oxo-2,3-dihydro-1,3-benzothiazol-7-yl)ethyl]amino}ethyl)-N-[(1R)-1-methylpentyl]-N^3-(2-phenylethyl)-β-alaninamide bis-trifluoroacetic acid salt] | 0.98
2 | CCCC[C@H](C)N(CCNCCc1ccc(O)c2[nH]c(=O)sc12)C(=O)CCNCCc1ccccc1 [Example 102, N-(2-{[2-(4-Hydroxy-2-oxo-2,3-dihydro-1,3-benzothiazol-7-yl)ethyl]amino}ethyl)-N-[(1S)-1-methylpentyl]-N^3-(2-phenylethyl)-β-alaninamide bis-trifluoroacetic acid salt] | 0.23
3 | CC(CN(C(=O)CCNCCc1cccc(F)c1)C1CCCCCC1)NCCc1ccc(O)c2[nH]c(=O)sc12 (stereo not drawn) [Example 104, N-Cycloheptyl-N^3-[2-(3-fluorophenyl)ethyl]-N-(2-{[2-(4-hydroxy-2-oxo-2,3-dihydro-1,3-benzothiazol-7-yl)ethyl]amino}propyl)-β-alaninamide bis-trifluoroacetic acid salt] | 0.81
4 | CC(CN(C(=O)CCNCCc1ccccc1)C1CCCCC1)NCCc1ccc(O)c2[nH]c(=O)sc12 (stereo not drawn) [Example 105, N-Cyclohexyl-N-(2-{[2-(4-hydroxy-2-oxo-2,3-dihydro-1,3-benzothiazol-7-yl)ethyl]amino}propyl)-N^3-(2-phenylethyl)-β-alaninamide bis-trifluoroacetic acid salt] | 0.86
